ChEMBL document CHEMBL5370555, “Design, synthesis, and evaluation of PD-1/PD-L1 small-molecule inhibitors bearing a rigid indane scaffold” (Eur J Med Chem, 2023)
Active and inactive are the calls of the source. The calls are words filed in the database; no cut-off is given here.

Assays:
[1] = biological target: Programmed cell death protein 1/Programmed cell death 1 ligand 1 (Homo sapiens, UniProt Q15116+Q9NZQ7); assay: Inhibition of PD-1/PD-L1 (unknown origin) protein-protein interaction incubated for 15 mins by TR-FRET assay; format: protein-complex assay
PBMC = assay: Cytotoxicity against human PBMC cells at < 8 uM incubated for 24 hrs by CCK-8 method; format: toxicity, cell-based
Jurkat [2] = assay: Cytotoxicity against human Jurkat cells at < 8 uM incubated for 24 hrs by CCK-8 method; format: functional, cell-based
MDA-MB-231 [3] = assay: Cytotoxicity against human MDA-MB-231 cells at 8 uM incubated for 24 hrs by CCK-8 method; format: functional, cell-based
RKO = assay: Cytotoxicity against human RKO cells at 8 uM incubated for 24 hrs by CCK-8 method; format: functional, cell-based
MDA-MB-231 [4] = assay: Cytotoxicity against human MDA-MB-231 cells at 1.0 uM incubated for 24 hrs by CCK-8 method; format: functional, cell-based
MDA-MB-231 [5] = assay: Antitumor immunity against human MDA-MB-231 cells cocultured with CD3/CD28/CD2 T cell activator stimulated human PBMC cells assessed as killing activity at 0.25 to 1 uM pre-treated with compound for 2 hrs followed by addition of CD3/CD28/CD2 T cell activator stimulated human PBMC cells and measured after 12 hrs; format: functional, cell-based; conditions: dose 0.25-1 µM, time 14.0 hrs
MDA-MB-231 [6] = assay: Antitumor immunity against human MDA-MB-231 cells cocultured with CD3/CD28/CD2 T cell activator stimulated human PBMC cells assessed as killing activity cell mortality rate at 0.5 uM pre-treated with compound for 2 hrs followed by addition of CD3/CD28/CD2 T cell activator stimulated human PBMC cells and measured after 12 hrs relative to control; format: functional; conditions: time 14 hrs
Jurkat [7] = assay: Restoration of PD-L1 mediated IFN-gamma release in anti-CD3/CD28 stimulated human Jurkat cells at 0.5 uM incubated for 24 hrs by ELISA method; format: functional, cell-based
Jurkat [8] = assay: Restoration of PD-L1 mediated IFN-gamma release in anti-CD3/CD28 stimulated human Jurkat cells incubated for 24 hrs by ELISA method; format: functional, cell-based; conditions: dose 0.25-2 µM

Chain of Programmed cell death protein 1/Programmed cell death 1 ligand 1 (Q15116 whole entry): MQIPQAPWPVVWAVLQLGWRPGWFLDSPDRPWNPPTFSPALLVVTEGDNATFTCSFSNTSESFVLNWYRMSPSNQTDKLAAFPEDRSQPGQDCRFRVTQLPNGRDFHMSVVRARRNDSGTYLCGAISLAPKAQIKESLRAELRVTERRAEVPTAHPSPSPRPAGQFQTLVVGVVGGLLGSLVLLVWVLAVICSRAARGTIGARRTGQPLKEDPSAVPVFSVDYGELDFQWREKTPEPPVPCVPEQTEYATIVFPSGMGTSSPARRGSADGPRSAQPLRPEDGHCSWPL
Chain of Programmed cell death protein 1/Programmed cell death 1 ligand 1 (Q9NZQ7 whole entry): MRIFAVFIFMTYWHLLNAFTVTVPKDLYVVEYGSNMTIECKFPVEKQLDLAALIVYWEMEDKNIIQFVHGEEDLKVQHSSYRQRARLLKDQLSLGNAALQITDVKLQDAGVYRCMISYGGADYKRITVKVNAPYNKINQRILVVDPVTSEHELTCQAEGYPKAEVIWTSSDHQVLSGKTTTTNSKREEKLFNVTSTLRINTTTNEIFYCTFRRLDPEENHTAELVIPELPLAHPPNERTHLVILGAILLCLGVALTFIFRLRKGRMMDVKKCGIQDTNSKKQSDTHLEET

| Structure (SMILES) | IC50 [1] | also measured |
| --- | --- | --- |
| COc1nc(O[C@H]2CCc3c(-c4ccc5c(c4)OCCO5)cccc32)c(Cl)cc1CNCCNC(C)=O | 16.3 nM | – |
| COc1nc(O[C@H]2CCc3c(-c4ccc5c(c4)OCCO5)cccc32)c(Cl)cc1CNCCO | 10.2 nM | – |
| COc1nc(O[C@H]2CCc3c(-c4ccc5c(c4)OCCO5)cccc32)c(Cl)cc1CNCCN(C)C | 46.2 nM | – |
| COc1nc(O[C@H]2CCc3c(-c4ccc5c(c4)OCCO5)cccc32)c(Cl)cc1CN1CC[C@@H](O)C1 | 69.4 nM | – |
| COCCNCc1cc(Cl)c(O[C@H]2CCc3c(-c4ccc5c(c4)OCCO5)cccc32)nc1OC | 43.1 nM | – |
| COc1nc(O[C@H]2CCc3c(-c4cccc(F)c4)cccc32)c(Cl)cc1CNCCO | 24.7 nM | – |
| COc1nc(O[C@H]2CCc3c(-c4ccc(F)c(F)c4)cccc32)c(Cl)cc1CNCCO | 55.6 nM | – |
| COc1nc(O[C@H]2CCc3c(-c4ccc5c(c4)OCCO5)cccc32)c(Br)cc1CNCCO | 51 nM | – |
| COc1nc(O[C@H]2CCCc3c(-c4ccccc4)cccc32)ccc1CNCCO | > 100 nM | – |
| COc1nc(O[C@H]2CCc3c(-c4ccc5c(c4)OCO5)cccc32)c(Cl)cc1CNCCO | 24.9 nM | – |
| COc1nc(O[C@H]2CCc3c(-c4ccc5c(c4)OCCO5)cccc32)c(Cl)cc1CNCCC(N)=O | 20.3 nM | – |
| COc1nc(O[C@@H]2CCc3c(-c4ccccc4)cccc32)ccc1CNCCO | 57.8 nM | – |
| COc1nc(O[C@H]2CCc3c(-c4ccccc4)cccc32)ccc1CNCCNC(C)=O | 21 nM | – |
| COc1nc(O[C@H]2CCc3c(-c4ccc5c(c4)OCCO5)cccc32)c(Cl)cc1CNCC(F)(F)F | 67 nM | – |
| COc1nc(O[C@H]2CCc3c(-c4ccc(F)cc4)cccc32)c(Cl)cc1CNCCO | 37.8 nM | – |
| COc1nc(O[C@H]2CCc3c(-c4ccccc4F)cccc32)c(Cl)cc1CNCCO | 2.2 nM | Activity (PBMC): Non-Toxic; Activity (Jurkat [2]): Active; Activity (MDA-MB-231 [3]): Active; Activity (RKO): Active; Activity (MDA-MB-231 [4]): inactive; Activity (MDA-MB-231 [5]): Active; mortality at 0.5 µM (MDA-MB-231 [6]): 40.9%; Activity (Jurkat [7]): Active; Activity (Jurkat [8]): Dose-Dependent Effect |

| Structure (SMILES) | IC50 [1] | also measured |
| --- | --- | --- |
| COc1nc(O[C@H]2CCc3c(-c4ccc5c(c4)OCCO5)cccc32)c(Cl)cc1CNC[C@@H]1CCC(=O)N1 | 15.7 nM | – |
| COc1nc(OCc2cccc(-c3ccccc3)c2C)ccc1CNCCNC(C)=O | – | mortality at 0.5 µM (MDA-MB-231 [6]): 45.1% |
| COc1nc(O[C@H]2CCc3c(-c4ccc5c(c4)OCCO5)cccc32)c(Cl)cc1CNC[C@@H](O)CO | 13.3 nM | – |
| COc1nc(O[C@@H]2CCc3c(-c4ccccc4)cccc32)ccc1CNCCNC(C)=O | 84.8 nM | – |
| COc1nc(O[C@H]2CCc3c(-c4ccc5c(c4)OCCO5)cccc32)c(Cl)cc1CN1CC[C@H](C(=O)O)C1 | 16.4 nM | – |
| COCCOc1cccc(-c2cccc3c2CC[C@@H]3Oc2nc(OC)c(CNCCO)cc2Cl)c1 | 94.5 nM | – |
| COc1nc(O[C@H]2CCc3c(-c4ccc5c(c4)OCCO5)cccc32)c(Cl)cc1CN1CC[C@H](O)C1 | 18 nM | – |
| COc1nc(O[C@H]2CCc3c(-c4ccc5c(c4)OCCO5)cccc32)c(Cl)cc1CNC[C@@H](O)CC(=O)O | 14 nM | – |
| COc1cccc(-c2cccc3c2CC[C@@H]3Oc2nc(OC)c(CNCCO)cc2Cl)c1 | > 100 nM | – |
| COc1nc(O[C@H]2CCCc3c(-c4ccccc4)cccc32)ccc1CNCCNC(C)=O | 47.6 nM | – |
| COc1nc(O[C@H]2CCc3c(-c4ccc5ccccc5c4)cccc32)c(Cl)cc1CNCCO | > 100 nM | – |
| COc1nc(O[C@@H]2CCc3c(-c4ccc5c(c4)OCCO5)cccc32)c(Cl)cc1CN1CC(O)C1 | 19.6 nM | – |
| COc1nc(O[C@H]2CCc3c(-c4ccc5[nH]ccc5c4)cccc32)c(Cl)cc1CNCCO | > 100 nM | – |
| COc1nc(O[C@H]2CCc3c(-c4ccccc4)cccc32)c(Cl)cc1CNCCO | 7.5 nM | – |
| COc1nc(O[C@H]2CCc3c(-c4ccccc4)cccc32)ccc1CNCCO | 24.4 nM | – |
| COc1ccc(-c2cccc3c2CC[C@@H]3Oc2nc(OC)c(CNCCO)cc2Cl)cc1OC | > 100 nM | – |
